Measured values reported in patent publication US12453708B2, “Aminonaphthoquinone compounds for treatment and/or prevention of fibrosis diseases” (CALGENT BIOTECHNOLOGY CO., LTD., priority 2015, dated 2025).

Test system: BLM-induced lung fibrosis in mice
Assay: Bleomycin (BLM)-induced lung fibrosis mice model
Format: in vivo, C57BL/6JNarl mice
Conditions: BLM mice; for fibrosis score, Mean ± SEM: H&E histology day 39
Description: FIGS. 8 (A) and (B) show the effect of L056 effect on fibrosis score of BLM-induced lung fibrosis in mice. C57BL/6 mice (8 weeks) were treated with bleomycin (BLM, 0.05 U/50 μl) or PBS (50 μl) by endotracheal administration. […] On day 39, the mice were sacrificed and, the histologic analysis of lung tissue was performed by hematoxylin-eosin (H&E) staining (original magnification, x100). […] (A), Histology fibrosis score plot; (B), H&E staining plot.
FIG. 9 (A) to (D) show the inhibitory effects on pro-fibrogenic mediators, collagen, CTGF, fibronectin and […], respectively. (A), H&E staining plot for collagen; (B), H&E staining plot for CTGF; (C), H&E staining plot for fibronectin; (D), H&E staining plot for α-SMA.
C57BL/6JNarl mice (8 weeks) were treated with bleomycin (BLM, 0.05 U/50 μl) or PBS (50 μl) by endotracheal administration. […] On day 39, the mice were sacrificed, and the histologic analysis of lung tissue was performed by hematoxylin-eosin (H&E) staining (original magnification, x100).

[1] = 200 mg (mg/kg/day, q.d., oral, days 10 to 38)
[2] = 60 mg (oral, q.d., days 10 to 38)

Row | SMILES | Efficacy % (reduction of fibrosis score) [1] [%] | fibrosis score, Mean ± SEM [1] | Efficacy % (reduction of fibrosis score) [2] [%] | fibrosis score, Mean ± SEM [2]
1 | Cc1ccc(=O)n(-c2ccccc2)c1 [Esbriet, pirfenidone, reference compound] | 34.08 | 3.91 ± 0.21 |  | 
2 | COC(=O)c1ccc2c(c1)NC(=O)/C2=C(\Nc1ccc(N(C)C(=O)CN2CCN(C)CC2)cc1)c1ccccc1 [OFEV, nintedanib, reference compound] |  |  | 41.66 | 3.62 ± 0.30
